Source: patent publication US20250295625A1, “AGENT FOR PROMOTING ODONTOBLAST PROPAGATION AND DIFFERENTIATION” (SUN MEDICAL CO., LTD., priority 2019, published 2025)

What was measured:
Assay type in all cases: cell-based
[1] = test system: MDPC-23 cell (rat dental papilla-derived cell), a rat odontoblast-like cell line; experiment: Odontoblast proliferation test (CCK-8 assay); conditions: FIG. 4
Protocol: A Dulbecco's modified Eagle's medium (DMEM) added with 5% by mass of fetal bovine serum (FBS) was prepared. Then, an MDPC-23 cell (rat dental papilla-derived cell), which is a rat odontoblast-like cell line, was cultured in DMEM. Subsequently, 0.1 mL of DMEM where the MDPC-23 cells were cultured was injected into each well in a microplate (96 wells) so that 1000 MDPC-23 cells were distributed into each well.
Next, the odontoblast proliferation/differentiation promoting agents of Examples 1 to 10 and ultrapure water (control) were individually added to corresponding wells. Then, the added mixture was allowed to stand at ordinary temperature (25° C.) for 5 days. Thereafter, the proliferation of the MDPC-23 cells was evaluated using a kit for measuring the number of living cells (CCK-8: Cell Counting Kit-8).
In the CCK-8 assay, a microplate reader (measurement wavelength: 450 nm) was used. The CCK-8 assay was repeated 6 times.
The results of the CCK-8 assay in Examples 1 to 5 and the control were shown in FIG. 3 and the results of the CCK-8 assay in Examples 4, 6 to 10 and the control were shown in FIG. 4.

[2] = test system: human dental pulp stem cell (hDPSC); experiment: Differentiation test of human dental pulp stem cells into odontoblasts (real-time PCR); conditions: sample 5% by mass, 24 days, FIGS. 7A to 7E; for odontoblast-specific genes (BSP, rOPN, rOCB, rDSPP, and rDMP-1) mRNA expression: β-actin internal standard
Protocol: A DMEM for culturing hDPSC was prepared in the same manner as in the measurement of cell survival rate. […] The concentration of the sample in each odontoblast proliferation/differentiation promoting agent was 5% by mass. • Calcium salt of […]: […] (Comparative Example 1), • Calcium hydroxide: CH (Comparative Example 2), • Mineral trioxide aggregate: […] As an internal standard, β-actin was used. mRNA expression levels of RNA-bone sialoprotein (BSP) are shown in FIG. 7A. mRNA expression levels of RNA-osteopontin (rOPN) are shown in FIG. 7B. mRNA expression levels of RNA-osteocalcin (rOCN) are shown in FIG. 7C. mRNA expression levels of RNA-dentin sialophosphoprotein (rDSPP) are shown in FIG. 7D. mRNA expression levels of RNA-dentin matrix protein (rDMP-1) are shown in FIG. 7E.

[3] = test system: human dental pulp stem cell (hDPSC); experiment: Calcification state of hDPSC culture (alkaline phosphatase measurement, alizarin red S staining); conditions: ALPase at 14, 21, 28 days (FIG. 8), alizarin red S at 30 and 32 days (FIGS. 9A, 9B)
Protocol: When DMEM containing the odontoblast proliferation/differentiation promoting agent of Example 12 and ultrapure water (control) therein was allowed to stand for 14, 21, and 28 days, the calcification state thus obtained was evaluated via alkaline phosphatase (ALPase) measurement.
Further, when DMEM containing the odontoblast proliferation/differentiation promoting agents of Example 12 and Comparative Examples 1 to 4 and ultrapure water (control) therein was allowed to stand for 30 and 32 days, the calcification state thus obtained was evaluated via alizarin red S staining measurement. The evaluation of the calcification state was performed using one-way ANOVA and Tukey's HSD post-hoc test with a significance level set at 1%

[4] = test system: mesenchymal stem cell (MSC); experiment: Differentiation test of mesenchymal stem cells into odontoblasts (real-time PCR); conditions: MSC, 10, 17, and 24 days
Protocol: A DMEM for culturing mesenchymal stem cell (MSC) was prepared in the same manner as the measurement of cell survival rate, except that hDPSC was replaced with MSC.
Next, the odontoblast proliferation/differentiation promoting agent of Example 12 and ultrapure water (control) were individually dissolved directly in the DMEM for culturing MSC. Then, DMEM was subjected to real-time PCR when allowed to stand for 10, 17, and 24 days. As an internal standard, β-actin was used.
mRNA expression levels of RNA-bone sialoprotein (BSP) are shown in FIG. 8A. mRNA expression levels of RNA-dentin matrix protein (rDMP-1) are shown in FIG. 8B.

C=C(C)C(=O)OCCOC(=O)c1ccc(C(=O)[O-])c(C(=O)[O-])c1.[Ca+2] [C-MET, calcium salt of 4-methacryloyloxyethyltrimellitic acid]
effect of promoting proliferation and/or differentiation of the MDPC-23 cells ([1]; as the concentration of C-MET was increased to 500 μg/mL (Example 7)): gradually improved
effect of promoting proliferation and/or differentiation of the MDPC-23 cells ([1]; when the concentration of C-MET exceeded 500 μg/mL): not found any further improvement
differentiation of hDPSC into odontoblasts [2]: promoted
odontoblast-specific genes (BSP, rOPN, rOCB, rDSPP, and rDMP-1) mRNA expression [2]: increased
calcification [3]: promoted
differentiation of MSC into odontoblasts [4]: promoted
odontoblast-specific genes (BSP, rDMP-1) mRNA expression ([4]; β-actin internal standard): increased

[Ca+2].[OH-].[OH-] [CH, Calcium hydroxide, reference compound]
differentiation of hDPSC into odontoblasts [2]: not observed
odontoblast-specific genes (BSP, rOPN, rOCB, rDSPP, and rDMP-1) mRNA expression [2]: no increase
calcification [3]: calcification was found

[Ca+2].[Cl-].[Cl-] [CaCl2, Calcium chloride]
calcification [3]: calcification was found
